The record followed here is patent publication US7618641B2, “Functionally reconstituted viral membranes containing adjuvant” (priority 2003, dated 2009).

The subject of this test is influenza proteins (A/Panama/2007/99). It counts as in vivo, Balb/C mice. To be noted: intranasal, day 0 and 14, 5 μg influenza proteins, lipopeptide in reconstituted membranes.

For “N-palmitoyl-S-2,3(bispalmitoyloxy)-propyl-cysteinyl-seryl-(lysil)3-lysine [lysine derivative]”, the “enhancement of the immune response” value is given as “approximately equivalent enhancement of the immune response”.
The entry for “N-palmitoyl-S-2,3(bispalmitoyloxy)-propyl-cysteinyl-seryl-(prolyl)3-proline [proline derivative]” is “approximately equivalent enhancement of the immune response”.
